This is an account of results in article PMC7232172, “APETx-Like Peptides from the Sea Anemone Heteractis crispa, Diverse in Their Effect on ASIC1a and ASIC3 Ion Channels” (Toxins, 2020).

Like-named read-outs stand apart in the source and are kept apart here. Bridges are numbered along the chain shown (N, C = ends). Where no end group is shown, it is not given here.

One data set concerns TTX-resistant NaV. Also on record: method as in PMID 22442564. As to conditions: cited from earlier work.
A further data set concerns KV3.4. Also on record: method as in PMID 16177043. As to conditions: cited from earlier work.
A further data set has as its system NaV1.7. Also on record: method as in PMID 22442564. The note with it: TTX-sensitive NaV; read-out: EC50, NaV1.7 potentiation; cited from earlier work.
Another data set has as its system KV3.1. Also on record: method as in PMID 9506974. As to conditions: cited from earlier work.
The target of the next data set is T1, rat ASIC1a channel (Rattus norvegicus, UniProt P55926).
T1 construct: expressed in transfected cells; host or cells: Xenopus laevis oocytes (cRNA injection)
T1 sequence (P55926 1-526): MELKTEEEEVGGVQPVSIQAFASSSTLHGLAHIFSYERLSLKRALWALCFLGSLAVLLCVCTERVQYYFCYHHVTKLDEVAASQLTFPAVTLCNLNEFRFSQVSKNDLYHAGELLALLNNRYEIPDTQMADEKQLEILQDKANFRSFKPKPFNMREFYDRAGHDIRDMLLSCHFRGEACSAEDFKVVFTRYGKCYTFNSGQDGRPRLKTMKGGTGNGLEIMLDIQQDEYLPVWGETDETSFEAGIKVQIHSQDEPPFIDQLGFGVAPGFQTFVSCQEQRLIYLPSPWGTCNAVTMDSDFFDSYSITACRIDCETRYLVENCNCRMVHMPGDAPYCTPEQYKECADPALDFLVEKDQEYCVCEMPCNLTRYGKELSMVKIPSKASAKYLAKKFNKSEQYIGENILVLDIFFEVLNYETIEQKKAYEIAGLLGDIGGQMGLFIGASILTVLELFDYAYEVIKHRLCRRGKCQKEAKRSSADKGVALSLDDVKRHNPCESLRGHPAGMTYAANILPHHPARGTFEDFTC
Kind of data set: Two-electrode voltage clamp, homomeric ASIC1a currents in Xenopus laevis oocytes. It is filed as cell-based. The note with it: for IC50: X. laevis oocytes, pH drop 7.8 to 5.5 (legend of Figure 4: from 7.4), peptide applied up to 15 s before, logistic fit, read-out: IC50, inhibition of rASIC1a current; for IC50 / A (response value at maximal inhibition, % of control), rASIC1a: mean ± SD, 5 cells; for A (response value at maximal inhibition, % of control), rASIC1a: fit parameter, pH drop to 5.5. On the procedure: (§1) The study of the pharmacological profile of the Hcr 1b-3 and Hcr 1b-4 peptides from H. crispa was carried out on two major ion channel subtypes, ASIC1a and ASIC3. Homomeric ASIC1a channels expressed in X. laevis oocytes were activated by a rapid pH drop from 7.8 to 5.5 in 15 s after peptide application. To analyze the effect of HcrTxs on the transient component of the ASIC3 current, the channels were activated by rapid extracellular acidification from pH 7.8 to 4.0, but effects on the sustained ASIC3 current were not studied. The inhibitory activity of three class 1b sea anemone toxins, APETx2, Hcr 1b-1, and Hcr 1b-2, towards ASICs was previously assayed in electrophysiological experiments (Table 2). In addition, we previously reported that the Hcr 1b-3 and Hcr 1b-4 peptides inhibited about 54% and 80% of the ASIC1a current, respectively.
(§2) Animal care and animal experiments were performed following the protocol approved by the Animal Care and Use Committee of the Shemyakin-Ovchinnikov Institute of Bioorganic Chemistry, Approval Code: 267/2018; Approval Date: 2 October 2018. RAS. Rat ASIC1a and ASIC3 channels were expressed in Xenopus laevis oocytes after injection of 2.5–10 ng of cRNA, as previously described. After injection oocytes were kept for 2–3 days at 19 °C and then up to 5 days at the temperature of 15–16 °C in sterile ND96 medium (96 mM NaCl, 2 mM KCl, 1.8 mM CaCl2, 1 mM MgCl2, 5 mM HEPES titrated to pH 7.4 with NaOH supplemented with 50 μg/mL of gentamycin). Two-electrode voltage clamp recordings were performed using GeneClamp 500 amplifier (Axon Instruments, Foster City, CA, USA). The data were filtered at 100 Hz and digitized at 1000 Hz by an AD converter L780 (LCard, Moscow, Russia) using in-house software. The solutions were applied to a cell chamber (volume 75 μL). The laminar flow of an external solution of ND96 (pH 7.8) was used at a rate of 1 mL/min. ASIC1a and ASIC3 were activated by a short pH drop from 7.8 to 5.5 or to 4.0 (10 mM MES or 10 mM acetic acid was used as the buffer solution, respectively) in supplementary 0.1% BSA solution. Peptides were applied for up to 15 s before the activation impulse. A value of currents inhibition was calculated as the ratio of the peak current amplitude when the peptide was applied to the average amplitude of the control peak currents before and after the peptide application and expressed as a percentage. To construct the concentration–response curves, a logistic equation was the following: y = ((1 – A)/(1 + ([C]/IC50) nH)) + A; where y is the relative value of current inhibition; C is the peptide concentration; IC50 is the half maximal inhibitory concentration; nH is the Hill coefficient; A is the response value at maximal inhibition (% of control). Calculations were carried out using software Origin 7.0. The data are presented as mean ± SD.

Data set [1] has as its target T2, rat ASIC3 channel (Rattus norvegicus, UniProt O35240).
T2 construct: expressed in transfected cells; host or cells: Xenopus laevis oocytes (cRNA injection)
T2 sequence (O35240 1-533): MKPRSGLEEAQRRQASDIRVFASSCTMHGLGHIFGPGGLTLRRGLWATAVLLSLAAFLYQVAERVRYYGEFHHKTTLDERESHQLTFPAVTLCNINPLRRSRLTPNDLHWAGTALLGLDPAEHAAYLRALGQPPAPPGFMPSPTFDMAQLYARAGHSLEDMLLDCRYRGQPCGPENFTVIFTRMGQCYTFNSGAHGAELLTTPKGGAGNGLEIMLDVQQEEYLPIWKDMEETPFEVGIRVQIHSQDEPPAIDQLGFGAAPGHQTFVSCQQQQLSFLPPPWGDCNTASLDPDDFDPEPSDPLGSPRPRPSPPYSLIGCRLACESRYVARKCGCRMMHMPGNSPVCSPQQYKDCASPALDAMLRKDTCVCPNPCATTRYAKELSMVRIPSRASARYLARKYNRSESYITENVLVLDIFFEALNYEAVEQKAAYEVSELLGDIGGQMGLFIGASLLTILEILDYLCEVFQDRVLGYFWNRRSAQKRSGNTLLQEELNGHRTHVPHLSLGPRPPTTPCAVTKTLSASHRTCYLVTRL
Kind of data set: Two-electrode voltage clamp, homomeric ASIC3 transient currents in Xenopus laevis oocytes. The note with it: mean ± SD, 5 cells. It is filed as cell-based. On the procedure:
as §1
as §2, with “The data are presented as mean ± SD.” left out

The test system of data set [2] is models of cerebral ischemia, retinal stroke, optic nerve crush, and Parkinson’s disease. The note with it: cited from earlier work. The source says: Animal toxins produced by spiders, snakes, and sea anemones are considered molecular instruments for the study of ASICs gating and promising drug precursors. […] Peptides from spiders and snakes inhibit mostly mammalian ASIC1a channels. Two of ASIC1a inhibitors from spiders, ...

For another data set, the system named is ASIC1b. As to conditions: cited from earlier work. From the text: (§3) It is noteworthy that to increase the current through the ASICs it takes an order of magnitude higher concentration of toxins than to inhibit it. […] No ASIC3 ...
The next data set relates to ASIC1a. The note with it: cited from earlier work; for effect on ASIC1a gating state: desensitization: ref 21, closed state: ref 13, 20, 22. From the text: Animal toxins produced by spiders, snakes, and sea anemones are considered molecular instruments for the study of ASICs gating and promising drug precursors. […] Peptides from spiders and snakes inhibit mostly mammalian ASIC1a channels. […] Peptides Hcr 1b-3 and Hcr 1b-4, electrophysiologically examined in this study, are the closest homologues of Hcr 1b-1 and Hcr 1b-2 (78%–97% of identity) as well as APETx2 (46%–49% of identity) that are attributed to β-defensin-like peptides. […] (Table 2). Despite the absence of the crucial basic residue Arg17 [31] in the sequence ...

Another data set has as its system NaV1.2. Also on record: method as in PMID 22972919. The note with it: cited from earlier work.
In a further data set the test system is human ASIC3. As to conditions: simian-kidney-derived COS-7 cells; read-out: IC50, inhibition of human ASIC3; cited from earlier work. The source says: (§4) Table 2 Electrophysiological activity of sea anemone toxins of structural class 1b on homomeric acid-sensing ion channels (ASICs). | column: ASIC3
The target in data set [3] is T2, rat ASIC3 channel. The note with it: rat ASIC3, X. laevis oocytes according to footnote of Table 2; read-out: IC50, inhibition of ASIC3 (APETx2); cited from earlier work.
Source text: as §4

The conditions of data set [4]: cited from earlier work. From the text: Similarly to other APETx-like peptides, HcrTxs form four-stranded antiparallel β-sheets cross-linked by three disulfide bridges (C1–C5, C2–C4, C3–C6). Conforming to the obtained models, the short α-helix (22-24 aa) of HcrTxs localized within the flexible region between the second and third strands (Figure 3a). Hcr 1b-2, -3, -4, and APETx2 are very basic peptides (theoretical pI being of 9.53, 9.23, 9.26, and 9.33, respectively). Basic-aromatic clusters play an important role in the formation of complexes between the ASIC channel and peptide toxins PcTx1, mambalgin- ...

The subject of the next data set is ASIC3. The note with it: cited from earlier work.
The subject of another data set is ASIC2a. The note with it: cited from earlier work.
Source text: as §3

The subject of the next data set is NaV1.8. Also on record: method as in PMID 22972919. As to conditions: cited from earlier work.
In a further data set the test system is hERG. Also on record: method as in 2 sources, ref 31 = [31]; PMID 25337890; doi:10.1021/jm501400p; 31. Jensen J.E. Cristofori-Armstrong B. Anangi R. Rosengren K.J. Lau C.H.Y. Mobli M. Brust A. Alewood P.F. King G.F. Rash L.D. Understanding the molecular basis of toxin promiscuity: The analgesic sea ||| ref 33 = [33]; PMID 12815161; doi:10.1124/mol.64.1.59; 33. Diochot S. APETx1, a new toxin from the sea anemone anthopleura elegantissima, blocks voltage-gated human ether-a-go-go-related gene potassium channels Mol. Pharmacol. 2003 64 59 69 10.1124/mol.64. The note with it: cited from earlier work.

On to “BDS-I: toxin BDS-I from sea anemone A. sulcata (AAPCFCSGKPGRGDLWILRGTCPGGYGYTSNCYKWPNICCYPH; UniProt P11494 1-43, looked up)”, for which, in the data set on TTX-resistant NaV, the “effect on TTX-resistant NaV” value is recorded as “weakly inhibits TTX-resistant NaV”. Besides, the values for the IC50 in the data set with KV3.4 and with KV3.1 were 220 nM and 47 nM, respectively. Also, the EC50 with NaV1.7 is approximately 3 nM.

With “GTPCDCYGYTGVYWFMLSRCPSGYGYNLSCHYFMGICCVKR (disulfide 4-37, 6-30, 20-38) [Hcr 1b-4]”, on rat ASIC1a channel, the IC50 stood at 1250 ± 40 nM and the “A (response value at maximal inhibition, % of control), rASIC1a” value was 13.7 ± 0.8%. The EC50 at rat ASIC3 channel [1] (X. laevis oocytes, pH drop 7.8 to 4.0 (legend of Figure 4: from 7.4), potentiation, read-out: EC50, potentiation of transient rASIC3 current) was determined as 1530 ± 70 nM. On rat ASIC3 channel [1] (fit parameter, pH drop to 4.0), the “A, rASIC3 potentiation” value is 207.78 ± 1.56%.

For “GTPCKCHGYIGVYWFMLAGCPDGYGYNLSCPYFLGICCVKK (disulfide 4-37, 6-30, 20-38) [Hcr 1b-3]”, the inhibition at 120 µM at rat ASIC1a channel (Hcr 1b-3 at 120 μM, Hcr 1b-4 from concentration–response relationship, read-out: maximal inhibition of ASIC1a current) was 70%. Besides, on rat ASIC1a channel, the half-inhibitory concentration (IC50) came to 4950 ± 190 nM and the “A (response value at maximal inhibition, % of control), rASIC1a” value is given as 30.3 ± 0.7%. Besides, the IC50 on rat ASIC3 channel [1] (X. laevis oocytes, pH drop 7.8 to 4.0 (legend of Figure 4: from 7.4), logistic fit, read-out: IC50, inhibition of transient rASIC3 current) was 17000 ± 5800 nM. The “A (response value at maximal inhibition, % of control), rASIC3” value on rat ASIC3 channel [1] (fit parameter, pH drop to 4.0) turned out to be 26 ± 7%.

As for “PcTx1: spider toxin from Psalmopoeus cambridgei (EDCIPKWKGCVNRHGDCCEGLECWKRRRSFEVCVPKTPKT; ends and bridges not checked; cysteine pairing not given here; UniProt P60514 1-40, looked up)”, the neuroprotection result in data set [2] is listed as “effective neuroprotectors”. In addition, the “effect on ASIC1b current” value with ASIC1b is “potentiate ASIC1b”. Further, the “effect on ASIC1a gating state” value in the data set with ASIC1a is “promote desensitization of ASIC1a”.

In the case of “mambalgin-1: snake toxin from Dendroaspis polylepis (LKCYQHGKVVTCHRDMKFCYHNTGMPFRNLKLILQGCSSSCSETENNKCCSTDRCNK; UniProt P0DKR6 22-78, looked up)”, the “effect on ASIC1a gating state” value in the data set on ASIC1a is on record as “stabilize the closed channels state”.

Consider “APETx2: toxin from sea anemone Anthopleura elegantissima, ASIC3 inhibitor (GTACSCGNSKGIYWFYRPSCPTDRGYTGSCRYFLGTCCTPAD; UniProt P61542 1-42, looked up)”, for which the IC50 in the data set with NaV1.2 is 114 ± 25 nM; in the data set with human ASIC3 it was 175 nM; with rat ASIC3 channel [3], 63 nM; in the data set with ASIC3 (species not given, read-out: IC50, inhibition of ASIC3), 63 nM; in the data set on NaV1.8, 55 ± 10 nM; in the data set on hERG, 1210 ± 50 nM. In addition, the “theoretical pI” value in data set [4] was 9.33. Further, the “effect on ASIC3 sustained component” value in the data set with ASIC3 (sustained current) is “no effect”. In the data set with ASIC2a, the “effect on ASIC2a current” value is “potentiate ASIC1b and ASIC2a currents”. In the data set on ASIC1b, the “effect on ASIC1b current” value is recorded as “potentiate ASIC1b”. In addition, in the data set on ASIC1a, the “effect on ASIC1a current” value is “no effect”.
